Measurements: US20230085307A1, “PYRIDAZINONE COMPOUND AND HERBICIDE” (NISSAN CHEMICAL CORPORATION, priority 2019, published 2023)

Assays:
late watergrass = assay: Test Example 1: herbicidal activity, application before weed generation under submerged conditions (Table 16, symbol A); format: in vivo, late watergrass (Echinochloa oryzicola); conditions: 320 g/ha applied herbicide
Method in brief: (§1)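 Alluvial soil was flooded to 4 cm depth, weed seeds were sown mixed and 2.5-leaf rice seedlings were transplanted. On sowing day, the compound's emulsion, diluted in water to a set dose, was applied to the water surface. Plants grew at 25–30 °C and were scored 0–5 after three weeks.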

Japanese bulrush = assay: Test Example 1: herbicidal activity, application before weed generation under submerged conditions (Table 16, symbol B); format: in vivo, Japanese bulrush (Schoenoplectus juncoides); conditions: 320 g/ha applied herbicide
Method in brief: as §1

oval-leafed pondweed = assay: Test Example 1: herbicidal activity, application before weed generation under submerged conditions (Table 16, symbol C); format: in vivo, oval-leafed pondweed (Monochoria vaginalis); conditions: 320 g/ha applied herbicide
Method in brief: as §1

barnyard grass [1] = assay: Test Example 3: herbicidal effect by foliage application, Wagner pot (Table 18, symbol H); format: in vivo, barnyard grass (Echinochloa crus-galli)
Method in brief: (§2)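 Plants were sown in alluvial soil held under 0.1–0.5 cm standing water and grown 14 days in a greenhouse at 25–30 °C. An emulsifiable formulation, water-diluted to the set dose, was then sprayed onto the foliage, and effects were scored three weeks later using previously defined criteria.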

Chinese sprangletop = assay: Test Example 3: herbicidal effect by foliage application, Wagner pot (Table 18, symbol D); format: in vivo, chinese sprangletop (Leptochloa chinensis)
Method in brief: as §2

rice flat sedge = assay: Test Example 3: herbicidal effect by foliage application, Wagner pot (Table 18, symbol E); format: in vivo, rice flat sedge (Cyperus iria)
Method in brief: as §2

southern crabgrass [2] = assay: Test Example 4: herbicidal effect by soil treatment (Table 19, symbol F); format: in vivo, southern crabgrass (Digitaria ciliaris)
Method in brief: (§3)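 Seeds were sown in sterilized diluvial soil and covered with about 1.5 cm of soil. An emulsion formulation diluted with water to a predetermined herbicide amount was sprayed evenly onto the soil surface. Plants grew in a greenhouse at 25° C. to 30° C., and the effect was scored three weeks after application using criteria from an earlier test.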

green foxtail [3] = assay: Test Example 4: herbicidal effect by soil treatment (Table 19, symbol G); format: in vivo, green foxtail (Setaria viridis)
Method in brief: as §3

barnyard grass [4] = assay: Test Example 4: herbicidal effect by soil treatment (Table 19, symbol H); format: in vivo, barnyard grass (Echinochloa crus-galli)
Method in brief: as §3

wild oat [5] = assay: Test Example 4: herbicidal effect by soil treatment (Table 19, symbol I); format: in vivo, wild oat (Avena fatua)
Method in brief: as §3

blackgrass [6] = assay: Test Example 4: herbicidal effect by soil treatment (Table 19, symbol J); format: in vivo, blackgrass (Alopecurus myosuroides)
Method in brief: as §3

Italian ryegrass [7] = assay: Test Example 4: herbicidal effect by soil treatment (Table 19, symbol K); format: in vivo, Italian ryegrass (Lolium multiflorum)
Method in brief: as §3

windgrass [8] = assay: Test Example 4: herbicidal effect by soil treatment (Table 19, symbol L); format: in vivo, windgrass (Apera spica-venti)
Method in brief: as §3

velvetleaf [9] = assay: Test Example 4: herbicidal effect by soil treatment (Table 19, symbol M); format: in vivo, velvetleaf (Abutilon theophrasti)
Method in brief: as §3

redroot pigweed = assay: Test Example 4: herbicidal effect by soil treatment (Table 19, symbol N); format: in vivo, redroot pigweed (Amaranthus retroflexus)
Method in brief: as §3

lambsquarters [10] = assay: Test Example 4: herbicidal effect by soil treatment (Table 19, symbol O); format: in vivo, lambsquarters (Chenopodium album)
Method in brief: as §3

persian speedwell [11] = assay: Test Example 4: herbicidal effect by soil treatment (Table 19, symbol R); format: in vivo, Persian speedwell (Veronica persica)
Method in brief: as §3

southern crabgrass [12] = assay: Test Example 5: herbicidal effect by foliage application, plastic box (Table 20, symbol F); format: in vivo, southern crabgrass (Digitaria ciliaris); conditions: foliage application, 320 g/ha, 3 weeks after application
Method in brief: (§4)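 Plants sown in sterilized diluvial soil and grown 14 days in a greenhouse at 25° C to 30° C, then sprayed on the foliage with the compound's emulsion diluted in water to a predetermined herbicide amount. Injury to weeds and crops scored three weeks after application on a visual rating scale.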

green foxtail [13] = assay: Test Example 5: herbicidal effect by foliage application, plastic box (Table 20, symbol G); format: in vivo, green foxtail (Setaria viridis); conditions: foliage application, 320 g/ha, 3 weeks after application
Method in brief: as §4

barnyard grass [14] = assay: Test Example 5: herbicidal effect by foliage application, plastic box (Table 20, symbol H); format: in vivo, barnyard grass (Echinochloa crus-galli); conditions: foliage application, 320 g/ha, 3 weeks after application
Method in brief: as §4

wild oat [15] = assay: Test Example 5: herbicidal effect by foliage application, plastic box (Table 20, symbol I); format: in vivo, wild oat (Avena fatua); conditions: foliage application, 320 g/ha, 3 weeks after application
Method in brief: as §4

blackgrass [16] = assay: Test Example 5: herbicidal effect by foliage application, plastic box (Table 20, symbol J); format: in vivo, blackgrass (Alopecurus myosuroides); conditions: foliage application, 320 g/ha, 3 weeks after application
Method in brief: as §4

Italian ryegrass [17] = assay: Test Example 5: herbicidal effect by foliage application, plastic box (Table 20, symbol K); format: in vivo, Italian ryegrass (Lolium multiflorum); conditions: foliage application, 320 g/ha, 3 weeks after application
Method in brief: as §4

windgrass [18] = assay: Test Example 5: herbicidal effect by foliage application, plastic box (Table 20, symbol L); format: in vivo, windgrass (Apera spica-venti); conditions: foliage application, 320 g/ha, 3 weeks after application
Method in brief: as §4

velvetleaf [19] = assay: Test Example 5: herbicidal effect by foliage application, plastic box (Table 20, symbol M); format: in vivo, velvetleaf (Abutilon theophrasti); conditions: foliage application, 320 g/ha, 3 weeks after application
Method in brief: as §4

lambsquarters [20] = assay: Test Example 5: herbicidal effect by foliage application, plastic box (Table 20, symbol O); format: in vivo, lambsquarters (Chenopodium album); conditions: foliage application, 320 g/ha, 3 weeks after application
Method in brief: as §4

persian speedwell [21] = assay: Test Example 5: herbicidal effect by foliage application, plastic box (Table 20, symbol R); format: in vivo, Persian speedwell (Veronica persica); conditions: foliage application, 320 g/ha, 3 weeks after application
Method in brief: as §4

chickweed = assay: Test Example 4: herbicidal effect by soil treatment (Table 19, symbol P); format: in vivo, common chickweed (Stellaria media); conditions: amount of applied herbicide 320 g/ha
Method in brief: as §3

[22] = amount of applied herbicide 320 g/ha

Which results are given for `C=CCSCc1ccc(-c2sc3ccccc3c2-c2c(O)c(C)nn(C)c2=O)cc1` [1-245]?
Herbicidal effect on A: late watergrass (grade 0-5) (late watergrass): 3 (Herbicidal rate of 40% or more and less than 70%); Herbicidal effect on B: Japanese bulrush (grade 0-5) (Japanese bulrush): 3 (Herbicidal rate of 40% or more and less than 70%); Herbicidal effect on C: oval-leafed pondweed (grade 0-5) (oval-leafed pondweed): 0 (Herbicidal rate of 5% or less (almost no effect)); herbicidal effect on H (barnyard grass), rating 0-5 (barnyard grass [1]; 320 g/ha): 5 (Herbicidal rate of 90% or more (almost completely withered)); herbicidal effect on D (Chinese sprangletop), rating 0-5 (Chinese sprangletop; 320 g/ha): 3 (Herbicidal rate of 40% or more and less than 70%); herbicidal effect on E (rice flat sedge), rating 0-5 (rice flat sedge; 320 g/ha): 3 (Herbicidal rate of 40% or more and less than 70%); F: southern crabgrass, herbicidal effect rating (southern crabgrass [2]; AAH 320 g/ha): 0 (Herbicidal rate of 5% or less (almost no effect)); G: green foxtail, herbicidal effect rating (green foxtail [3]; AAH 320 g/ha): 0 (Herbicidal rate of 5% or less (almost no effect)); H: barnyard grass, herbicidal effect rating (barnyard grass [4]; AAH 320 g/ha): 0 (Herbicidal rate of 5% or less (almost no effect)); I: wild oat, herbicidal effect rating (wild oat [5]; AAH 320 g/ha): 0 (Herbicidal rate of 5% or less (almost no effect)); J: blackgrass, herbicidal effect rating (blackgrass [6]; AAH 320 g/ha): 0 (Herbicidal rate of 5% or less (almost no effect)); K: Italian ryegrass, herbicidal effect rating (Italian ryegrass [7]; AAH 320 g/ha): 2 (Herbicidal rate of 20% or more and less than 40%); L: windgrass, herbicidal effect rating (windgrass [8]; AAH 320 g/ha): 0 (Herbicidal rate of 5% or less (almost no effect)); M: velvetleaf, herbicidal effect rating (velvetleaf [9]; AAH 320 g/ha): 0 (Herbicidal rate of 5% or less (almost no effect)); N: redroot pigweed, herbicidal effect rating (redroot pigweed; AAH 320 g/ha): 3 (Herbicidal rate of 40% or more and less than 70%); O: lambsquarters, herbicidal effect rating (lambsquarters [10]; AAH 320 g/ha): 3 (Herbicidal rate of 40% or more and less than 70%); R: persian speedwell, herbicidal effect rating (persian speedwell [11]; AAH 320 g/ha): 4 (Herbicidal rate of 70% or more and less than 90%); effect on southern crabgrass (F) (southern crabgrass [12]): 3 (Herbicidal rate of 40% or more and less than 70%); effect on green foxtail (G) (green foxtail [13]): 4 (Herbicidal rate of 70% or more and less than 90%); effect on barnyard grass (H) (barnyard grass [14]): 5 (Herbicidal rate of 90% or more (almost completely withered)); effect on wild oat (I) (wild oat [15]): 1 (Herbicidal rate of 5% or more and less than 20%); effect on blackgrass (J) (blackgrass [16]): 3 (Herbicidal rate of 40% or more and less than 70%); effect on Italian ryegrass (K) (Italian ryegrass [17]): 4 (Herbicidal rate of 70% or more and less than 90%); effect on windgrass (L) (windgrass [18]): 4 (Herbicidal rate of 70% or more and less than 90%); effect on velvetleaf (M) (velvetleaf [19]): 5 (Herbicidal rate of 90% or more (almost completely withered)); effect on lambsquarters (O) (lambsquarters [20]): 5 (Herbicidal rate of 90% or more (almost completely withered)); effect on persian speedwell (R) (persian speedwell [21]): 5 (Herbicidal rate of 90% or more (almost completely withered))

How did the “Herbicidal effect on A: late watergrass (grade 0-5)” value (late watergrass) turn out when `COc1ccc(-c2sc3ccc(F)cc3c2-c2c(O)c(C)nn(C)c2=O)cc1Cl` [2-370] was run?
The value was 3 (Herbicidal rate of 40% or more and less than 70%).

What about the “Herbicidal effect on B: Japanese bulrush (grade 0-5)” value (Japanese bulrush) of the same compound?
Its value is 0 (Herbicidal rate of 5% or less (almost no effect)).

What about the “Herbicidal effect on C: oval-leafed pondweed (grade 0-5)” value (oval-leafed pondweed) of the same compound?
The value was 0 (Herbicidal rate of 5% or less (almost no effect)).

And the “herbicidal effect on H: barnyard grass” value (barnyard grass [1]; [22])?
The value was 3 (Herbicidal rate of 40% or more and less than 70%).

What about the “herbicidal effect on D: Chinese sprangletop” value (Chinese sprangletop; [22]) of the same compound?
Its value is 2 (Herbicidal rate of 20% or more and less than 40%).

What about the “herbicidal effect on E: rice flat sedge” value (rice flat sedge; [22]) of the same compound?
The value was 5 (Herbicidal rate of 90% or more (almost completely withered)).

What about the “herbicidal effect, F: southern crabgrass” value (southern crabgrass [2]; [22]) of the same compound?
Its value is 0 (Herbicidal rate of 5% or less (almost no effect)).

What about the “herbicidal effect, G: green foxtail” value (green foxtail [3]; [22]) of the same compound?
Its value is 0 (Herbicidal rate of 5% or less (almost no effect)).

And the “herbicidal effect, H: barnyard grass” value (barnyard grass [4]; [22])?
The value was 0 (Herbicidal rate of 5% or less (almost no effect)).

What about the “herbicidal effect, I: wild oat” value (wild oat [5]; [22]) of the same compound?
The value was 0 (Herbicidal rate of 5% or less (almost no effect)).

What about the “herbicidal effect, J: blackgrass” value (blackgrass [6]; [22]) of the same compound?
Its value is 0 (Herbicidal rate of 5% or less (almost no effect)).

And the “herbicidal effect, K: Italian ryegrass” value (Italian ryegrass [7]; [22])?
Its value is 0 (Herbicidal rate of 5% or less (almost no effect)).

And the “herbicidal effect, L: windgrass” value (windgrass [8]; [22])?
Its value is 0 (Herbicidal rate of 5% or less (almost no effect)).

And the “herbicidal effect, M: velvetleaf” value (velvetleaf [9]; [22])?
Its value is 1 (Herbicidal rate of 5% or more and less than 20%).

And the “herbicidal effect, N: redroot pigweed” value (redroot pigweed; [22])?
Its value is 2 (Herbicidal rate of 20% or more and less than 40%).

And the “herbicidal effect, O: lambsquarters” value (lambsquarters [10]; [22])?
Its value is 4 (Herbicidal rate of 70% or more and less than 90%).

What about the “herbicidal effect, P: chickweed” value (chickweed) of the same compound?
Its value is 3 (Herbicidal rate of 40% or more and less than 70%).

And the “herbicidal effect, R: persian speedwell” value (persian speedwell [11]; [22])?
The value was 4 (Herbicidal rate of 70% or more and less than 90%).
